Values joined by “and” are separate entries in the source; they are usually repeats but may differ in a detail not shown here. Equal entries are not always repeated. Where two headings read alike, the source gives them in different places.
How the values were obtained:
C. elegans = C. elegans motor phenotype scoring on solid media (Punc/jerky-unc, coiled, paralyzed), wild-type young adults; assay type: in vivo, Caenorhabditis elegans; conditions: for any phene (mean % fraction of young adults exhibiting any phenotype: coiled, jerky-Unc or paralyzed) / atypical locomotion (number of animals) / coiled (number of animals) / no phene (number of animals) / paralyzed (number of animals) / any phene: mean % fraction of young adults exhibiting any phenotype (coiled, jerky-Unc or paralyzed): one hour; for any phene (mean % fraction of young adults exhibiting any phenotype: coiled, jerky-Unc or paralyzed) / any phene: mean % fraction of young adults exhibiting any phenotype (coiled, jerky-Unc or paralyzed): mean of three biological replicates; for EC50: Caenorhabditis elegans, any motor phenotype after 1 h on solid media, ± 95% CI, read-out: C. elegans - motor disruption EC50; for atypical locomotion (number of animals) / coiled (number of animals) / no phene (number of animals) / paralyzed (number of animals): young adults, 20 animals per trial, single technical replicate
rat VAChT = molecular target: T1, rat VAChT (Rattus norvegicus, UniProt Q62666); assay: [3H]Vesamicol competitive radioligand binding, PC12 cells expressing ratVAChT
T1 construct: expressed in transfected cells; host or cells: rat PC12 (PC12 A123.7) cells, stably transfected; shared by Dr. Ali Roghani (Texas Tech University)
T1 sequence (Q62666 1-530): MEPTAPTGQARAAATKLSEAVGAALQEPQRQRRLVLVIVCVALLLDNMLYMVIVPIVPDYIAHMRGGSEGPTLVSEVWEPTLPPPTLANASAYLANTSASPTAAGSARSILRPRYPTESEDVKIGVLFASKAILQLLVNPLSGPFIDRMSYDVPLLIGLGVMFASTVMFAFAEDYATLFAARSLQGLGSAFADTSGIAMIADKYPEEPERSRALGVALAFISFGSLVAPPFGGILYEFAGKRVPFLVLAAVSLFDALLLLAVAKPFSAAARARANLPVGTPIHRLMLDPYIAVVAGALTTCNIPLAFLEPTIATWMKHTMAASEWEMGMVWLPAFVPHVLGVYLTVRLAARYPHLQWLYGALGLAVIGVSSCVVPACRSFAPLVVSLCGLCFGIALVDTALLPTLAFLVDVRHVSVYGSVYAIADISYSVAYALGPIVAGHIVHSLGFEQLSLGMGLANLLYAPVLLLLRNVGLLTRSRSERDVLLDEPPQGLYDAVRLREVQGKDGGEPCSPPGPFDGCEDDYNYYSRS

[1] = system: Dirofilaria immitis microfilariae; assay: Dirofilaria immitis microfilariae immobility assay (DiroImager, 72 h); conditions: Dirofilaria immitis microfilariae
In short: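 Motility read after 72 h drug exposure with an image-based high-throughput plate imager, 1% DMSO medium serving as negative control. Missouri-isolate microfilariae, roughly 250 per well, freshly purified and cultured in supplemented RPMI 1640.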

[2] = system: Dirofilaria immitis L3/L4; assay: Dirofilaria immitis L3/L4 motility assay (DiroImager, 72 h); conditions: Dirofilaria immitis L4
Pristionchus pacificus = Pristionchus pacificus motor disruption dose-response on solid media, 1 h; conditions: for mean % any phene (coiled, jerky-Unc or paralyzed): Pristionchus pacificus young adults; for mean % any phene (coiled, jerky-Unc or paralyzed) / mean % any phene: mean of three biological replicates; for EC50: Pristionchus pacificus, 1 h, read-out: P. pacificus motor disruption EC50; for rep 1 atypical locomotion / rep 1 coiled / rep 1 no phene / rep 1 paralyzed / rep 2 atypical locomotion / rep 2 coiled / rep 2 no phene / rep 2 paralyzed / rep 3 atypical locomotion / rep 3 coiled / rep 3 no phene / rep 3 paralyzed: count of 20 animals per trial, one hour; for mean % any phene: any phenotype (coiled, jerky-Unc or paralyzed) at one hour
[3] = 3.75uM, third c14 line of each analog
[4] = 15uM, second c14 line of each analog
[5] = 60uM, first c14 line of each analog
[6] = [3H]Vesamicol binding, PC12, experiment 1, read-out: expt 1 Ki (M) vs. rat VAChT (PC12)
[7] = [3H]Vesamicol binding, PC12, experiment 2, read-out: expt 2 Ki (M) vs. rat VAChT (PC12)
[8] = [3H]Vesamicol binding, rat VAChT (PC12), mean of 2-3 experiments, read-out: mean Ki
[9] = conc 3.75, observed at one hour

Cc1ccc(N2CCN(C3CCC(C)C3)CC2)cc1 (centres unmarked) [Nemacol-41]
any phene (mean % fraction of young adults exhibiting any phenotype: coiled, jerky-Unc or paralyzed) (C. elegans; [3]): 58.3333%
any phene (mean % fraction of young adults exhibiting any phenotype: coiled, jerky-Unc or paralyzed) (C. elegans; [4]): 98.3333%
any phene (mean % fraction of young adults exhibiting any phenotype: coiled, jerky-Unc or paralyzed) (C. elegans; [5]): 100%
EC50 (C. elegans): 3300 ± 1400 nM
Ki (rat VAChT; [6]): 4.82e-07 M
Ki (rat VAChT; [7]): 3.76e-07 M
Ki (rat VAChT; [8]): 4.29e-07 M
% effect (motility), DIROIM MF ([1]; 0.016 µM): 0%
% effect (motility), DIROIM MF ([1]; 0.08 µM): 0%
% effect (motility), DIROIM MF ([1]; 0.4 µM): 0%
% effect (motility), DIROIM MF ([1]; 2 µM): 0%
% effect (motility), DIROIM MF ([1]; 10 µM): 0%
% effect (motility), DIROIM L4 ([2]; 2 µM): 5%
% effect (motility), DIROIM L4 ([2]; 10 µM): 5%
% effect (motility), DIROIM L4 ([2]; 50 µM): 20%
mean % any phene (coiled, jerky-Unc or paralyzed) (Pristionchus pacificus; [9]): 9.167%
mean % any phene (coiled, jerky-Unc or paralyzed) (Pristionchus pacificus; conc 15, observed at one hour): 67.5%
mean % any phene (coiled, jerky-Unc or paralyzed) (Pristionchus pacificus; conc 60, observed at one hour): 100%
EC50 (Pristionchus pacificus): 10700 ± 1200 nM

Cc1ccc(N2CCN(CC3CC4C=CC3C4)CC2)cc1 (centres unmarked) [Nemacol-43]
any phene (mean % fraction of young adults exhibiting any phenotype: coiled, jerky-Unc or paralyzed) (C. elegans; [3]): 33.7698%
any phene (mean % fraction of young adults exhibiting any phenotype: coiled, jerky-Unc or paralyzed) (C. elegans; [4]): 100%
any phene (mean % fraction of young adults exhibiting any phenotype: coiled, jerky-Unc or paralyzed) (C. elegans; [5]): 100%
EC50 (C. elegans): 3900 nM
Ki (rat VAChT; [6]): 1.91e-07 M
Ki (rat VAChT; [7]): 1.26e-07 M
Ki (rat VAChT; [8]): 1.59e-07 M
% effect (motility), DIROIM MF ([1]; 0.016 µM): 0%
% effect (motility), DIROIM MF ([1]; 0.08 µM): 0%
% effect (motility), DIROIM MF ([1]; 0.4 µM): 0%
% effect (motility), DIROIM MF ([1]; 2 µM): 0%
% effect (motility), DIROIM MF ([1]; 10 µM): 0%
% effect (motility), DIROIM L4 ([2]; 2 µM): 6%
% effect (motility), DIROIM L4 ([2]; 10 µM): 5%
% effect (motility), DIROIM L4 ([2]; 50 µM): 20%
mean % any phene (coiled, jerky-Unc or paralyzed) (Pristionchus pacificus; [9]): 0%
mean % any phene (coiled, jerky-Unc or paralyzed) (Pristionchus pacificus; conc 15, observed at one hour): 20.8333%
mean % any phene (coiled, jerky-Unc or paralyzed) (Pristionchus pacificus; conc 60, observed at one hour): 76.4035%
EC50 (Pristionchus pacificus): 31500 ± 4900 nM

Clc1ccc(N2CCN(CC3CC4C=CC3C4)CC2)cc1 (centres unmarked) [Nemacol-46]
any phene (mean % fraction of young adults exhibiting any phenotype: coiled, jerky-Unc or paralyzed) (C. elegans; [3]): 89.1667%
EC50 (C. elegans): 2300 nM
Ki (rat VAChT; [6]): 9.16e-08 M
Ki (rat VAChT; [7]): 7.54e-08 M
Ki (rat VAChT; [8]): 8.35e-08 M
% effect (motility), DIROIM MF ([1]; 0.016 µM): 0%
% effect (motility), DIROIM MF ([1]; 0.08 µM): 0%
% effect (motility), DIROIM MF ([1]; 0.4 µM): 0%
% effect (motility), DIROIM MF ([1]; 2 µM): 0%
% effect (motility), DIROIM MF ([1]; 10 µM): 0%
% effect (motility), DIROIM L4 ([2]; 2 µM): 0%
% effect (motility), DIROIM L4 ([2]; 10 µM): 5%
% effect (motility), DIROIM L4 ([2]; 50 µM): 25%
mean % any phene (coiled, jerky-Unc or paralyzed) (Pristionchus pacificus; [9]): 41.6667%
mean % any phene (coiled, jerky-Unc or paralyzed) (Pristionchus pacificus; conc 15, observed at one hour): 58.3333%
mean % any phene (coiled, jerky-Unc or paralyzed) (Pristionchus pacificus; conc 60, observed at one hour): 84.1667%
EC50 (Pristionchus pacificus): 7000 ± 2400 nM
rep 1 atypical locomotion (Pristionchus pacificus; conc 3.75): 0
rep 1 coiled (Pristionchus pacificus; conc 3.75): 0
rep 1 no phene (Pristionchus pacificus; conc 3.75): 20
rep 1 paralyzed (Pristionchus pacificus; conc 3.75): 0
rep 2 atypical locomotion (Pristionchus pacificus; conc 3.75): 4
rep 2 coiled (Pristionchus pacificus; conc 3.75): 0
rep 2 no phene (Pristionchus pacificus; conc 3.75): 16
rep 2 paralyzed (Pristionchus pacificus; conc 3.75): 0
rep 1 atypical locomotion (Pristionchus pacificus; conc 15): 11
rep 1 coiled (Pristionchus pacificus; conc 15): 4
rep 1 no phene (Pristionchus pacificus; conc 15): 4
rep 1 paralyzed (Pristionchus pacificus; conc 15): 1
rep 2 atypical locomotion (Pristionchus pacificus; conc 15): 0
rep 2 coiled (Pristionchus pacificus; conc 15): 8
rep 2 no phene (Pristionchus pacificus; conc 15): 0
rep 2 paralyzed (Pristionchus pacificus; conc 15): 12
rep 1 atypical locomotion (Pristionchus pacificus; conc 60): 4
rep 1 coiled (Pristionchus pacificus; conc 60): 6
rep 1 no phene (Pristionchus pacificus; conc 60): 0
rep 1 paralyzed (Pristionchus pacificus; conc 60): 10
rep 2 atypical locomotion (Pristionchus pacificus; conc 60): 0
rep 2 coiled (Pristionchus pacificus; conc 60): 8
rep 2 no phene (Pristionchus pacificus; conc 60): 0
rep 2 paralyzed (Pristionchus pacificus; conc 60): 12

CC1CCC(N2CCN(c3ccccc3)CC2)CC1 (centres unmarked) [Nemacol-50]
atypical locomotion (number of animals) (C. elegans; 3.75uM): 8 and 14 and 7 and 18 and 16
coiled (number of animals) (C. elegans; 3.75uM): 0 and 1
no phene (number of animals) (C. elegans; 3.75uM): 11 and 5 and 12 and 13 and 2 and 4
paralyzed (number of animals) (C. elegans; 3.75uM): 1 and 0
any phene: mean % fraction of young adults exhibiting any phenotype (coiled, jerky-Unc or paralyzed) (C. elegans; 3.75uM): 60.8333%
atypical locomotion (number of animals) (C. elegans; 15uM): 10 and 12 and 11 and 17 and 7 and 5
coiled (number of animals) (C. elegans; 15uM): 1 and 0 and 7 and 3 and 4
no phene (number of animals) (C. elegans; 15uM): 2 and 0
paralyzed (number of animals) (C. elegans; 15uM): 7 and 8 and 0 and 9 and 12
any phene: mean % fraction of young adults exhibiting any phenotype (coiled, jerky-Unc or paralyzed) (C. elegans; 15uM): 96.6667%
atypical locomotion (number of animals) (C. elegans; 60uM): 1 and 3 and 0 and 6 and 5 and 2
coiled (number of animals) (C. elegans; 60uM): 8 and 11 and 14 and 5 and 6
no phene (number of animals) (C. elegans; 60uM): 1 and 0
paralyzed (number of animals) (C. elegans; 60uM): 10 and 6 and 12
any phene: mean % fraction of young adults exhibiting any phenotype (coiled, jerky-Unc or paralyzed) (C. elegans; 60uM): 99.1667%
EC50 (C. elegans): 3000 ± 1300 nM
Ki (rat VAChT; [6]): 1.82e-06 M
Ki (rat VAChT; [7]): 2.05e-06 M
Ki (rat VAChT; [3H]Vesamicol binding, PC12, third experiment column (date expt 3), read-out: expt 2 Ki (M) vs. rat VAChT (PC12)): 1.95e-06 M
Ki (rat VAChT; [8]): 1.94e-06 M
Ki (rat VAChT; [3H]Vesamicol displacement, mean, read-out: ratVAChT Ki): 1.94e-06 M
% effect (motility), DIROIM MF ([1]; 0.016 µM): 0%
% effect (motility), DIROIM MF ([1]; 0.08 µM): 0%
% effect (motility), DIROIM MF ([1]; 0.4 µM): 0%
% effect (motility), DIROIM MF ([1]; 2 µM): 0%
% effect (motility), DIROIM MF ([1]; 10 µM): 0%
% effect (motility), DIROIM L4 ([2]; 2 µM): 0%
% effect (motility), DIROIM L4 ([2]; 10 µM): 0%
% effect (motility), DIROIM L4 ([2]; 50 µM): 5%
EC50 (Pristionchus pacificus): 49200 nM
mean % any phene (Pristionchus pacificus; conc 3.75): 0%
rep 1 atypical locomotion (Pristionchus pacificus; conc 3.75): 0
rep 1 coiled (Pristionchus pacificus; conc 3.75): 0
rep 1 no phene (Pristionchus pacificus; conc 3.75): 20
rep 1 paralyzed (Pristionchus pacificus; conc 3.75): 0
rep 2 atypical locomotion (Pristionchus pacificus; conc 3.75): 0
rep 2 coiled (Pristionchus pacificus; conc 3.75): 0
rep 2 no phene (Pristionchus pacificus; conc 3.75): 20
rep 2 paralyzed (Pristionchus pacificus; conc 3.75): 0
rep 3 atypical locomotion (Pristionchus pacificus; conc 3.75): 0
rep 3 coiled (Pristionchus pacificus; conc 3.75): 0
rep 3 no phene (Pristionchus pacificus; conc 3.75): 20
rep 3 paralyzed (Pristionchus pacificus; conc 3.75): 0
mean % any phene (Pristionchus pacificus; conc 15): 0%
rep 1 atypical locomotion (Pristionchus pacificus; conc 15): 0
rep 1 coiled (Pristionchus pacificus; conc 15): 0
rep 1 no phene (Pristionchus pacificus; conc 15): 20
rep 1 paralyzed (Pristionchus pacificus; conc 15): 0
rep 2 atypical locomotion (Pristionchus pacificus; conc 15): 0
rep 2 coiled (Pristionchus pacificus; conc 15): 0
rep 2 no phene (Pristionchus pacificus; conc 15): 20
rep 2 paralyzed (Pristionchus pacificus; conc 15): 0
rep 3 atypical locomotion (Pristionchus pacificus; conc 15): 0
rep 3 coiled (Pristionchus pacificus; conc 15): 0
rep 3 no phene (Pristionchus pacificus; conc 15): 20
rep 3 paralyzed (Pristionchus pacificus; conc 15): 0
mean % any phene (Pristionchus pacificus; conc 60): 98.3333%
rep 1 atypical locomotion (Pristionchus pacificus; conc 60): 9 and 5
rep 1 coiled (Pristionchus pacificus; conc 60): 4 and 2
rep 1 no phene (Pristionchus pacificus; conc 60): 0
rep 1 paralyzed (Pristionchus pacificus; conc 60): 7 and 13
rep 2 atypical locomotion (Pristionchus pacificus; conc 60): 7 and 10
rep 2 coiled (Pristionchus pacificus; conc 60): 4 and 2
rep 2 no phene (Pristionchus pacificus; conc 60): 0
rep 2 paralyzed (Pristionchus pacificus; conc 60): 9 and 8
rep 3 atypical locomotion (Pristionchus pacificus; conc 60): 11 and 13
rep 3 paralyzed (Pristionchus pacificus; conc 60): 6 and 4
